Test results taken from patent US20160333419A1, “GENE SIGNATURES ASSOCIATED WITH SENSITIVITY TO MDM2 INHIBITORS” (DAIICHI SANKYO COMPANY, LIMITED, priority 2014, published 2016).

Tests used:
Experiment in all cases: OncoPanel cytotoxicity assay
Type in all cases: cell-based
SW48 = details: Homo sapiens, 72 hour incubation
Experimental: (§1) Cells were grown in RPMI 1640, 10% FBS, 2 mM L-alanyl-L-Glutamine, 1 mM Na Pyruvate, or a special medium in a humidified atmosphere of 5% CO2 at 37° C. Cells were seeded into 384-well plates and incubated in a humidified atmosphere of 5% CO2 at 37° C. Test compounds were added 24 hours post cell seeding. At the same time, a time zero, untreated cell plate was generated as a control. After a 72 hour incubation period, cells were fixed and stained with nuclear dye to allow visualization of nuclei.
(§2) Compounds were serially diluted 3.16-fold and assayed over 10 concentrations of inhibitor in a final assay concentration of 0.1% DMSO from the highest test concentration specified in the sample information chapter. Automated fluorescence microscopy was carried out using a GE Healthcare InCell Analyzer 1000, and images were collected with a 4× objective. Twelve bit tiff images were acquired using the InCell Analyzer 1000 3.2 and analyzed with Developer Toolbox 1.6 software.
(§3) Cell proliferation was measured by the signal intensity of the incorporated nuclear dye. The cell proliferation assay output is referred to as the relative cell count. To determine the cell proliferation end point, the cell proliferation data output is transformed to percent of control (POC) using the following formula: […]
(§4) Relative cell count IC50 (IC50) is the test compound's concentration that produces 50% of the cell proliferation inhibitory response or 50% cytotoxicity level. IC50 values were calculated using nonlinear regression to fit data to a sigmoidal 4 point, 4 parameter One-Site dose response model, where: y (fit)=A+[(B−A)/(1+((C/x)̂D))]. Curve-fitting, IC50 calculations and report generation were performed using a custom data reduction engine MathIQ based software (AIM). […] In these cases, the IC50 values were expressed as 40 μM and 10 μM, respectively (Table 2).

CCF-STTG1 = details: Homo sapiens, 72 hour incubation
Experimental: as §1, §2, §3, §4

SW962 = details: Homo sapiens, SW 962, 72 hour incubation
Experimental: as §1, §2, §3, §4

WiDr = details: Homo sapiens, 72 hour incubation
Experimental: as §1, §2, §3, §4

Jurkat = details: Homo sapiens, 72 hour incubation
Experimental: as §1, §2, §3, §4

DK-MG = details: Homo sapiens, 72 hour incubation
Experimental: as §1, §2, §3, §4

HEL-92-1-7 = details: Homo sapiens, HEL 92.1.7, 72 hour incubation
Experimental: as §1, §2, §3, §4

HT-3 = details: Homo sapiens, 72 hour incubation
Experimental: as §1, §2, §3, §4

SK-NEP-1 = details: Homo sapiens, 72 hour incubation
Experimental: as §1, §2, §3, §4

Hs 695T = details: Homo sapiens, 72 hour incubation
Experimental: as §1, §2, §3, §4

A101D = details: Homo sapiens, 72 hour incubation
Experimental: as §1, §2, §3, §4

SCC-25 = details: Homo sapiens, 72 hour incubation
Experimental: as §1, §2, §3, §4

T24 = details: Homo sapiens, T-24, 72 hour incubation
Experimental: as §1, §2, §3, §4

SW872 = details: Homo sapiens, 72 hour incubation
Experimental: as §1, §2, §3, §4

Mia PaCa-2 = details: Homo sapiens, 72 hour incubation
Experimental: as §1, §2, §3, §4

NCI-H292 = details: Homo sapiens, 72 hour incubation
Experimental: as §1, §2, §3, §4

DoTc2 4510 = details: Homo sapiens, 72 hour incubation
Experimental: as §1, §2, §3, §4

AsPC-1 = details: Homo sapiens, ASPC1, 72 hour incubation
Experimental: as §1, §2, §3, §4

KPL-1 = details: Homo sapiens, 72 hour incubation
Experimental: as §1, §2, §3, §4

SKOV3 = details: Homo sapiens, SK-OV-3, 72 hour incubation
Experimental: as §1, §2, §3, §4

C32 = details: Homo sapiens, 72 hour incubation
Experimental: as §1, §2, §3, §4

LS1034 = details: Homo sapiens, LS-1034, 72 hour incubation
Experimental: as §1, §2, §3, §4

DMS114 = details: Homo sapiens, DMS-114, 72 hour incubation
Experimental: as §1, §2, §3, §4

PC-3 = details: Homo sapiens, 72 hour incubation
Experimental: as §1, §2, §3, §4

AU565 = details: Homo sapiens, 72 hour incubation
Experimental: as §1, §2, §3, §4

SCaBER = details: Homo sapiens, 72 hour incubation
Experimental: as §1, §2, §3, §4

A375 = details: Homo sapiens, A-375, 72 hour incubation
Experimental: as §1, §2, §3, §4

SK-MEL-28 = details: Homo sapiens, 72 hour incubation
Experimental: as §1, §2, §3, §4

SK-N-AS = details: Homo sapiens, 72 hour incubation
Experimental: as §1, §2, §3, §4

NCI-H520 = details: Homo sapiens, 72 hour incubation
Experimental: as §1, §2, §3, §4

SW403 = details: Homo sapiens, SW-403, 72 hour incubation
Experimental: as §1, §2, §3, §4

DLD-1 = details: Homo sapiens, 72 hour incubation
Experimental: as §1, §2, §3, §4

HCT-8 = details: Homo sapiens, 72 hour incubation
Experimental: as §1, §2, §3, §4

SNU-5 = details: Homo sapiens, 72 hour incubation
Experimental: as §1, §2, §3, §4

CEM-C1 = details: Homo sapiens, 72 hour incubation
Experimental: as §1, §2, §3, §4

Daudi = details: Homo sapiens, 72 hour incubation
Experimental: as §1, §2, §3, §4

MeWo = details: Homo sapiens, 72 hour incubation
Experimental: as §1, §2, §3, §4

Colo 201 = details: Homo sapiens, 72 hour incubation
Experimental: as §1, §2, §3, §4

| SMILES | IC50 (SW48) | IC50 (CCF-STTG1) | IC50 (SW962) | IC50 (WiDr) | IC50 (Jurkat) | IC50 (DK-MG) | IC50 (HEL-92-1-7) | IC50 (HT-3) | IC50 (SK-NEP-1) | IC50 (Hs 695T) | IC50 (A101D) | IC50 (SCC-25) | IC50 (T24) | IC50 (SW872) | IC50 (Mia PaCa-2) | IC50 (NCI-H292) | IC50 (DoTc2 4510) | IC50 (AsPC-1) | IC50 (KPL-1) | IC50 (SKOV3) | also measured |
| --- | --- | --- | --- | --- | --- | --- | --- | --- | --- | --- | --- | --- | --- | --- | --- | --- | --- | --- | --- | --- | --- |
| CC[C@@H]1CNC2(CC2)CN1C(=O)[C@@H]1C[C@@H](F)CN1C(=O)C1=C(C(C)C)N2C(=N[C@@](C)(c3ccc(Cl)nc3)[C@H]2c2ccc(Cl)c(F)c2)S1 [Compound A, [(5R,6S)-5-(4-Chloro-3-fluorophenyl)-6-(6-chloropyridin-3-yl)-6-methyl-3-(propan-2-yl)-5,6-dihydroimidazo[2,1-b][1,3]thiazol-2-yl][(2S,4R)-2-{[(6R)-6-ethyl-4,7-diazaspiro[2.5]oct-7-yl]carbonyl}-4-fluoropyrrolidin-1-yl]methanone] | 1.09 µM | 0.541 µM | > 40 µM | 34.8 µM | > 40 µM | 0.645 µM | > 40 µM | > 40 µM | > 40 µM | 1.28 µM | 0.233 µM | > 40 µM | > 40 µM | > 40 µM | > 40 µM | 0.479 µM | 39.6 µM | > 40 µM | 0.455 µM | > 40 µM | IC50 (C32): > 40 µM; IC50 (LS1034): > 40 µM; IC50 (DMS114): > 40 µM; IC50 (PC-3): > 40 µM; IC50 (AU565): 23.7 µM; IC50 (SCaBER): > 40 µM; IC50 (A375): 0.317 µM; IC50 (SK-MEL-28): > 40 µM; IC50 (SK-N-AS): > 40 µM; IC50 (NCI-H520): > 40 µM; IC50 (SW403): > 40 µM; IC50 (DLD-1): > 40 µM; IC50 (HCT-8): 0.506 µM; IC50 (SNU-5): > 40 µM; IC50 (CEM-C1): 33.6 µM; IC50 (Daudi): 0.599 µM; IC50 (MeWo): > 40 µM; IC50 (Colo 201): 34.6 µM |
| CC1(C)CCC2(CC1)N[C@@H](C(=O)N[C@@H]1CC[C@@H](C(N)=O)OC1)[C@H](c1ccnc(Cl)c1F)[C@]21C(=O)Nc2cc(Cl)ccc21 [Compound B, (3′R,4′S,5′R)—N-[(3R,6S)-6-carbamoyltetrahydro-2H-pyran-3-yl]-6″-chloro-4′-(2-chloro-3-fluoropyridin-4-yl)-4,4-dimethyl-2″-oxo-1″,2″-dihydrodispiro[cyclohexane-1,2′-pyrrolidine-3′,3″-indole]-5′-carboxamide] | 0.125 µM | 0.0852 µM | > 10 µM | 5.58 µM | > 10 µM | 0.0553 µM | > 10 µM | > 10 µM | > 10 µM | 0.174 µM | 0.0314 µM | 9.86 µM | > 10 µM | > 10 µM | 7.22 µM | 0.0347 µM | > 10 µM | > 10 µM | 0.031 µM | > 10 µM | IC50 (C32): > 10 µM; IC50 (LS1034): > 10 µM; IC50 (DMS114): > 10 µM; IC50 (PC-3): > 10 µM; IC50 (AU565): > 10 µM; IC50 (SCaBER): > 10 µM; IC50 (A375): 0.0434 µM; IC50 (SK-MEL-28): > 10 µM; IC50 (SK-N-AS): 8.29 µM; IC50 (NCI-H520): > 10 µM; IC50 (SW403): > 10 µM; IC50 (DLD-1): 8.91 µM; IC50 (HCT-8): 0.0516 µM; IC50 (SNU-5): > 10 µM; IC50 (CEM-C1): 9.37 µM; IC50 (Daudi): 0.132 µM; IC50 (MeWo): > 10 µM; IC50 (Colo 201): 7.33 µM |
